Entries after “also recorded” stand apart in the source; their conditions may differ.
Columns and labels:
[1] = test system: human norovirus GII.4 (K2017 strain); assay: Human norovirus proliferation inhibition in 2D organoid after agent pre-treatment, GII.4 strain; format: cell-based
Procedure: (§1) Feces of a human norovirus-infected patent contains a large amount of infectious human norovirus. Thus, the feces of a human norovirus-infected patient is suspended in distilled water or the like to a final concentration of about 10%, to thereby prepare a “10% feces suspension.” The 10% feces suspension is about 10-fold diluted with an ENRA medium. The diluted suspension is added to each of the aforementioned wells having the 2D organoid (5 μL/well) and subjected to incubation for about 3 hours, to thereby proliferate human norovirus. As a result of verification, it has been confirmed that human norovirus proliferates to about 100,000 times the initial count through the culture system employing the 2D organoid.
In the Example, there were tested strains of human norovirus obtained from feces of human norovirus infection patients through the aforementioned procedure and stocked before the test. Specifically, three strains belonging to the genetic group 2 (GII) which accounts for 80 to 90% of the infected patients were selected as test targets. The isolated strain lineages included in GII (FIG. 1) were GII. 6 belonging to “Lineage 1,” GII. 3 belonging to “Lineage 2,” and GII.4 belonging to “Lineage 3” (GII. 6: K2017 strain, GII.3: TCH2004 strain, and GII. 4: K2017 strain).
The effect of 2fp-fucose treatment on proliferation of human norovirus was investigated for each lineage of norovirus. Specifically, after the 2fp-fucose treatment for 3 days, the 2D organoid was infected with each of the aforementioned norovirus strains GII.6, GII. 3, and GII. 4, and the viral proliferation amount was determined on days 3 and 6 after infection (FIG. 4).
Next, there was investigated the effect of the period of time (the number of days) of the 2fp-fucose treatment performed in advance on the anti-human norovirus action of the fucose analog. Specifically, the strain GII. 4 was treated with 2fp-fucose (several concentrations) for 1 to 4 days. […] However, in the group of 3-day treatment, the proliferation inhibition effect was observed by the 200 μM treatment with a certain range of variation in effectiveness. In the group of 4-day treatment, the proliferation inhibition effect was initially observed by 8 μM treatment, and the effect increased in a concentration-dependent manner to a 2fp-fucose concentration of 200 μM. […] Thus, the highest proliferation inhibition effect was obtained in the 2D organoid system through a 200 μM treatment for 3 to 4 days. The test was repeatedly performed three times. Error bars denote SEMs.
The 2D organoid was treated with an agent for 3 days. The tested agents were (a) 2fp-fucose (200 μM), (b) Sofosbuvir (1 μM), (c) Lamivudine (1 μM), (d) Ribavirin (400 μM), and (e) Mizoribine (100 μM). Subsequently, the thus-treated 2D organoid was infected with human norovirus (the norovirus strain GII.4), and the proliferation inhibition effect was determined (FIG. 6). The test was repeatedly performed three times. Error bars denote SEMs.

[2] = test system: 2D organoid derived from intestinal stem cells; assay: Cytotoxicity of 2fp-fucose to 2D organoid (Trypan blue staining); format: cell-based; conditions: 2fp-fucose 3.0 to 1,000 μM, 7 continuous days, versus no treatment (0 μM)
From the text: The 2D organoid derived from intestinal stem cells refers to a 2D organoid for infection and culture of human diarrhea virus (including norovirus) disclosed in Patent Document 2. According to Patent Document 2, the 2D organoid is “obtained by Step 1 in which human intestinal epithelial stem cells, human intestinal epithelial cells, or a tissue including at least one of these cells is subjected to 3-dimensional culturing on the extracellular matrix, to thereby obtain a 3D organoid; and by Step 2 in which the above-obtained 3D organoid is dispersed to prepare single cells; the single cells are subjected to monolayer culturing on an extracellular matrix; and there is obtained a 2D organoid having a single-layer structure of the epithelial cells for forming the human intestinal cavity which include differentiated trophoblastic cells and caliciform cells.” By virtue of the 2D organoid, culturing human norovirus, which was not previously achieved, can be successfully performed.
The aforementioned 3D organoid is degraded by use of, for example, TrypLE™ Express (product of Thermo Fisher SCIENTIFIC), to thereby yield single cells. […]
The 2D organoid was treated with 2fp-fucose (3.0 to 1,000 μM) for 7 continuous days. In each case, the number of dead cells was determined through Trypan blue staining. […]

[3] = test system: VLP of norovirus GII. 4; assay: Binding of AF488-labeled VLPs of norovirus GII.4 to the surface of 2fp-fucose-treated 2D organoid; format: cell-based, human norovirus; conditions: 2fp-fucose 0, 8, 40, 200, 1,000 μM, 4 treatment days
Procedure: In the Example, a nucleotide sequence (AB447456) encoding a structural protein domain of norovirus GII. 4 was incorporated into a baculovirus, and the sequence was expressed in insect cells (SF9 cells). The expression product was used in the Example.
Separately, VLPs of norovirus GII. 4 were labeled with AF488 (Alexa Fluor 488; green phosphor) and purified. The thus-prepared labeled VLPs were added to the 2fp-fucose-treated 2D organoid, and a state of binding of VLPs to the surface of the 2fp-fucose-treated 2D organoid was observed. Similar to the case of UEA-1, the 2fp-fucose concentration in the treatment was 0, 8, 40, 200, and 1,00 0 μM (for 4 treatment days). […] When the 2fp-fucose concentration exceeded 40 μM, definite reduction in VLP adsorption on the surface of 2D organoid was observed (FIG. 3(b)). FIG. 3(b) includes monochrome photographic images.

[4] = test system: human norovirus GII. 6 (K2017 strain); assay: Human norovirus proliferation inhibition in 2D organoid after 2fp-fucose treatment, GII.6 strain; format: cell-based; conditions: 3 days treatment before infection, days 3 and 6 after infection
Procedure: as §1
In the Example, there were tested strains of human norovirus obtained from feces of human norovirus infection patients through the aforementioned procedure and stocked before the test. Specifically, three strains belonging to the genetic group 2 (GII) which accounts for 80 to 90% of the infected patients were selected as test targets. The isolated strain lineages included in GII (FIG. 1) were GII. 6 belonging to “Lineage 1,” GII. […]
The effect of 2fp-fucose treatment on proliferation of human norovirus was investigated for each lineage of norovirus. […] 4, and the viral proliferation amount was determined on days 3 and 6 after infection (FIG. 4).

[5] = GII.4, groups of 1-day treatment and 2-day treatment with 2fp-fucose

CC(=O)OC1O[C@@H](C)[C@@H](OC(C)=O)[C@@H](OC(C)=O)[C@@H]1F (stereo partly drawn) [2fp-fucose, (3S,4R,5R,6S)-3-fluoro-6-methyltetrahydro-2H-pyran-2,4,5-triyl triacetate]
concentration of slight viral proliferation inhibition ([1]; GII.4 strain, 3 days treatment before infection): 40 µM | concentration of complete viral proliferation inhibition ([1]; GII.4 strain, 3 days treatment before infection, days 3 and 6 after infection): ≥ 200 µM | proliferation of human norovirus ([1]; GII.4, 4-day treatment, 1,000 μM): slight proliferation of human norovirus was observed | viral RNA titer from day 0 to day 7 (proliferation inhibition effect) ([1]; GII.4, agent 200 μM, 3 days treatment before infection): no substantial increase in viral RNA titer was observed | concentration at which the proliferation inhibition effect was observed ([1]; GII.4, group of 3-day treatment, certain range of variation in effectiveness): 200 µM | concentration at which the proliferation inhibition effect was initially observed ([1]; GII.4, group of 4-day treatment): 8 µM | proliferation inhibition effect [1, 5]: no proliferation inhibition effect | proliferation of human norovirus 3 days after inoculation [1, 5]: ≥ 100 fold | concentration giving the highest proliferation inhibition effect ([1]; GII.4, treatment for 3 to 4 days): 200 µM | cell viability (number of dead cells, Trypan blue staining) [2]: no significant difference was observed in cell viability; also recorded: no effect on cell viability was confirmed | VLP binding amount on the surface of 2D organoid [3]: decrease in a concentration-dependent manner | concentration of complete viral proliferation inhibition [4]: ≥ 200 µM

— patent publication US20240390404A1, “ANTI-HUMAN NOROVIRUS AGENT” (KEIO UNIVERSITY, priority 2018, published 2024)
